From paper PMC9022229, “Induction of Paraptosis by Cyclometalated Iridium Complex-Peptide Hybrids and CGP37157 via a Mitochondrial Ca^2+ Overload Triggered by Membrane Fusion between Mitochondria and the Endoplasmic Reticulum” (Biochemistry, 2022)

Key:
Jurkat cells [1] = details: for Effect of Ca2+ channel inhibitor on cell death induced by 4 / Effect of Ca2+ channel inhibitor on cell death induced by celastrol: inhibitor 1 h (2-APB 50 μM, RuRed 10 μM, ER-000444793 10 μM); for Effect of Ca2+ channel inhibitor on cell death induced by 4: then 4 5 μM 3 h, microscopy and MTT; for Effect of Ca2+ channel inhibitor on cell death induced by celastrol: then celastrol 1 μM 12 h; for Effect of Ca2+ channel inhibitor on cell death induced by celastrol / Effect of PCD inhibitor on cell death induced by CGP37157 / Effect of GTPase inhibitor on cytotoxicity by 4 / Effect of GTPase inhibitor on cytotoxicity by CGP37157: MTT; for Effect of PCD inhibitor on cell death induced by CGP37157: Z-VAD-fmk 30 μM, Nec-1 30 μM, 3-MA 5 mM, CGP37157 100 µM, 12 h, three independent experiments; for Effect of GTPase inhibitor on cytotoxicity by 4 / Effect of GTPase inhibitor on cytotoxicity by CGP37157: inhibitor 1 h (dynasore, Mdivi-1 10–30 μM, CID1067700 1–10 μM); for Effect of GTPase inhibitor on cytotoxicity by 4: then 4 5 μM 1 or 3 h; for Effect of GTPase inhibitor on cytotoxicity by CGP37157: then CGP37157 100 μM 12 h
[2] = test system: MFN1- and/or MFN2-KD Jurkat cells; assay: MTT assay of MFN1- and/or MFN2-KD Jurkat cells; assay type: cell-based; details: siRNA 10 nM, celastrol 1 µM, 12 h, three independent experiments
Experimental: The roles of MFNs in the cell death induced by 4 and CGP37157 were examined by using small interfering RNA (siRNA) for MFN1 and MFN2 to knock down (KD) these proteins. […] The cytotoxicity of 4 and CGP37157 against MFN1- and/or MFN2-KD Jurkat cells was evaluated by MTT assays. […] The effect of a negative control siRNA (NCsiRNA) on the expression levels of MFNs and the cell viability of Jurkat cells was negligible, implying that MFNs are […] to the paraptosis induced by 4 and CGP37157. It should be noted that the treatment with siRNA at 5 nM for 72 h was toxic against Jurkat cells in the presence of 4 and CGP37157, although the efficiency of knockdown of these proteins by siRNA could be improved by increasing the incubation time, as shown in Figure S11.
To a solution of transfection reagent (INTERFERin, 5 μL) in OPTI-MEM (0.3 mL) in a 1.5 mL Eppendorf tube was added siRNA (10 μM, 1 or 2 μL) in H2O, and the resulting solution was allowed to stand for 15 min at room temperature. The resulting solution was then added to Jurkat cells (2.0 × 10^5 cells/mL, 1.5 mL) in 10% FBS/RPMI 1640 medium that had been seeded on a 12-well plate and incubated overnight at 37 °C under 5% CO2 (the final concentration of siRNA was 5 or 10 nM), and the resulting solution was incubated for 48 or 72 h at 37 °C under 5% CO2. The cells were collected by centrifugation (2000 rpm, 3 min, 4 °C), and the expression levels of MFNs were evaluated by Western blot analysis as described above. The cytotoxicity of 4 (3 or 5 μM), CGP37157 (50 or 100 μM), and celastrol (1 μM) against MFNs-KD Jurkat cells was evaluated by MTT assays as described above.

mitofusin 2 (MFN2) = assay: Western blot analysis of MFN2 in Jurkat cells; assay type: cell-based; details: for MFN2 band intensity relative to absence of compound: Figure S8C, 24 h
Experimental: (§1) In a 1.5 mL Eppendorf tube, Jurkat cells (1.0 × 10^6 cells) were incubated in the presence of 4 ([…]), CGP37157 (100 μM for 0–24 h or 0–100 μM for 12 h), and celastrol (0–10 μM for 24 h or 1 μM for 0–24 h) at 37 °C under 5% CO2. After the cells had been washed twice with PBS, the proteins were extracted by using RIPA buffer (Nacalai Tesque) and quantified using a Pierce BCA Protein Assay Kit (Thermo Scientific). Proteins (7.5 μg/well) for MFNs and DRP1 and proteins (5.0 μg/well) for GAPDH were used for sodium dodecyl sulfate–polyacrylamide gel electrophoresis (SDS–PAGE) (7.5% for MFNs and DRP1 and 10% for GAPDH) (Bio-Rad). After SDS–PAGE, the proteins were transferred to a polyvinylidene fluoride membrane (Merck Millipore) by using a semi dry blotter (Bio-Rad). The membrane was blocked with Blocking One solution (Nacalai Tesque) for 30 min at room temperature. After being blocked, the membrane was washed three times with 1× TBST and treated with primary antibodies overnight (at a dilution of 1/1000 for MFNs and DRP1 or 1/2000 for GAPDH) in a signal enhancer HIKARI-solution A (Nacalai Tesque). The membrane was washed three times with 1× TBST and treated with the anti-mouse or anti-rabbit IgG HRP-conjugated secondary antibody (at a dilution of 1/4000 for MFNs and DRP1 or 1/10000 for GAPDH) in 1× TBST for 60 min at room temperature. The protein signal was spotted with a Chemi-Lumi One Ultra solution (Nacalai Tesque) using the ChemiDoc MP system (Bio-Rad). […]

mitofusin 1 (MFN1) = assay: Western blot analysis of MFN1 in Jurkat cells; assay type: cell-based; details: for MFN1 band intensity relative to absence of compound: Figure S8C, 24 h
Experimental: as §1

[3] = test system: dynamin-related protein 1 (DRP1); assay: Western blot analysis of DRP1 in Jurkat cells; assay type: cell-based; details: for DRP1 band intensity relative to absence of compound: Figure S8C, 24 h
Experimental: In a 1.5 mL Eppendorf tube, Jurkat cells (1.0 × 10^6 cells) were incubated in the presence of 4 ([…]), CGP37157 (100 μM for 0–24 h or 0–100 μM for 12 h), and celastrol (0–10 μM for 24 h or 1 μM for 0–24 h) at 37 °C under 5% CO2. After the cells had been washed twice with PBS, the proteins were extracted by using RIPA buffer (Nacalai Tesque) and quantified using a Pierce BCA Protein Assay Kit (Thermo Scientific). Proteins (7.5 μg/well) for MFNs and DRP1 and proteins (5.0 μg/well) for GAPDH were used for sodium dodecyl sulfate–polyacrylamide gel electrophoresis (SDS–PAGE) (7.5% for MFNs and DRP1 and 10% for GAPDH) (Bio-Rad). After SDS–PAGE, the proteins were transferred to a polyvinylidene fluoride membrane (Merck Millipore) by using a semi dry blotter (Bio-Rad). The membrane was blocked with Blocking One solution (Nacalai Tesque) for 30 min at room temperature. After being blocked, the membrane was washed three times with 1× TBST and treated with primary antibodies overnight (at a dilution of 1/1000 for MFNs and DRP1 or 1/2000 for GAPDH) in a signal enhancer HIKARI-solution A (Nacalai Tesque). The membrane was washed three times with 1× TBST and treated with the anti-mouse or anti-rabbit IgG HRP-conjugated secondary antibody (at a dilution of 1/4000 for MFNs and DRP1 or 1/10000 for GAPDH) in 1× TBST for 60 min at room temperature. The protein signal was spotted with a Chemi-Lumi One Ultra solution (Nacalai Tesque) using the ChemiDoc MP system (Bio-Rad).

Jurkat cells [4] = assay: TEM analysis of cytoplasmic vacuolization; assay type: cell-based; details: celastrol 1 μM, 24 h
Experimental: The morphological changes in Jurkat cells induced by CGP37157 (Figure 3B) were similar to those induced by 4 (Figure 1B) and confirmed in detail by TEM (transmission electron microscopy). Jurkat cells were treated with CGP37157 (100 μM) for 12 h, prefixed with glutaraldehyde and postfixed with osmium tetroxide (OsO4), and included in Poly 812 resin. The resulting samples were sliced and then observed by TEM. […] Similar TEM images were reported with respect to paraptosis-inducing natural compounds by some research groups: (i) paraptosis in MDA-MB 435S cells,[17] HeLa cells,[18] and Jurkat cells (Figure 4d and in our previous publications)[56]−[58] induced by celastrol, (ii) paraptosis in HeLa cells induced by 8-p-hydroxybenzoyl tovarol,[23] and (iii) paraptosis in A2780 cells and SKOV-3 cells induced by morusin.[22] Therefore, we believe that Jurkat cells undergo vacuolization in the paraptotic processes induced by 4 and CGP37157, as well as celastrol.
In a 1.5 mL Eppendorf tube, Jurkat cells (3.0 × 10^6 cells) were incubated with 4 (5 μM for 3 h), CGP37157 (100 μM for 12 h), and celastrol (1 μM for 24 h) in 10% FBS/RPMI 1640 medium at 37 °C under 5% CO2. After centrifugation (2000 rpm, 3 min, 4 °C), the cells were washed twice with PBS, prefixed with glutaraldehyde (2.5%) at 4 °C for 40 min, and then washed twice with PBS. Osmium tetroxide (1%) was used for postfixation, and the solution was incubated at 4 °C for 30 min. The cells were washed with PBS, included in an agarose gel, and dehydrated by using 50–100% and anhydrous EtOH. The cells were embedded into Poly 812 resin (Nisshin EM Co. Ltd.) at 60 °C for 3 days. The resin was sliced with a glass knife (150 nm thickness) on an ultramicrotome (EM UC6, Leica), and the samples were stained with EM stainer (Nisshin EM Co. Ltd.) and observed on TEM instrument (H-7650, Hitachi) with electron irradiation at 100 kV.

Jurkat cells [5] = assay: Mitochondria-ER membrane fusion, co-staining with MitoTracker Green and ER-Tracker Red; assay type: cell-based; details: celastrol 1 μM, 12 h
Experimental: To verify this hypothesis, mitochondria and the ER were stained with both MitoTracker Green and ER-Tracker Red in the presence of 4, CGP37157, and celastrol (Figure 8). Jurkat cells were stained with MitoTracker Green (0.5 μM) and ER-Tracker Red (1 μM) and then treated with 4 (5 μM) for 10–30 min (time-dependent microscopic images are presented in Figure S5). […] With regard to CGP37157 and celastrol, Jurkat cells were stained with MitoTracker Green (0.5 μM) and ER-Tracker Red (1 μM) and then treated with CGP37157 (100 μM) and celastrol (1 μM) for 1–24 h (Figure 8 and Figure S5).
In a 1.5 mL Eppendorf tube, Jurkat cells (2.0 × 10^5 cells) were stained with MitoTracker Green (0.5 μM) for 1 h at 37 °C under 5% CO2 and then ER-Tracker Red (1 μM) for 1 h at 37 °C under 5% CO2 in 10% FBS/RPMI 1640 medium (100 μL). After being washed with PBS, the cells were treated with 4 (5 μM) in 10% FBS/RPMI 1640 medium (100 μL) for 0–30 min at 37 °C under 5% CO2. For CGP37157 and celastrol, Jurkat cells were treated with CGP37157 (100 μM) or celastrol (1 μM) in 10% FBS/RPMI 1640 medium (100 μL) for 0–24 h, after which the cells were stained with MitoTracker Green (0.5 μM) for 1 h at 37 °C under 5% CO2 and then ER-Tracker Red (1 μM) for 1 h at 37 °C under 5% CO2 in PBS. The cells were washed with PBS and observed by confocal microscopy (Fluoview, FV-1000, Olympus) using a Greiner CELLview dish (35 mm × 10 mm). Excitation at 473 nm and emission from 485 to 545 nm were used for MitoTracker Green. Excitation at 559 nm and emission from 570 to 620 nm were used for ER-Tracker Red. The exposure time was 20 μs/pixel.

[6] = celastrol 1 μM 0–24 h or 0–10 μM 24 h

Which results are given for O=C(Nc1ccccc1Cc1ccccc1)c1cc(=O)[nH]c2ccccc12 [ER-000444793]?
Effect of Ca2+ channel inhibitor on cell death induced by 4 (Jurkat cells [1]): negligible inhibitory effects; Effect of Ca2+ channel inhibitor on cell death induced by celastrol (Jurkat cells [1]): negligible inhibitory effects

For NCCOB(c1ccccc1)c1ccccc1 [2-APB, 2-Aminoethoxydiphenyl borate], which “Effect of Ca2+ channel inhibitor on cell death induced by 4” value (Jurkat cells [1]) is on record?
The value was “negligible inhibitory effects”.

What about the “Effect of Ca2+ channel inhibitor on cell death induced by celastrol” value (Jurkat cells [1]) of the same compound?
The value was “negligible inhibitory effects”.

With N.N.N.N.N.N.N.N.N.N.N.N.N.N.[Cl-].[Cl-].[Cl-].[Cl-].[Cl-].[Cl-].[O-2].[O-2].[Ru+3].[Ru+3].[Ru+4] [RuRed, ruthenium red] as the compound, how does the “Effect of Ca2+ channel inhibitor on cell death induced by 4” value (Jurkat cells [1]) read?
The value was “negligible inhibitory effects”.

What about the “Effect of Ca2+ channel inhibitor on cell death induced by celastrol” value (Jurkat cells [1]) of the same compound?
Its value is “negligible inhibitory effects”.

For Cn1cnc(N)c2ncnc1-2 [3-methyladenine], which “Effect of PCD inhibitor on cell death induced by CGP37157” value (“Effect of PCD inhibitor” for short) (Jurkat cells [1]) is on record?
Its value is “negligible inhibition”.

For CN1C(=O)C(Cc2c[nH]c3ccccc23)NC1=S (stereo not shown) [necrostatin-1], which “Effect of PCD inhibitor” value (Jurkat cells [1]) is on record?
Its value is “negligible inhibition”.

What does the source list for CC1(C)Cc2c(sc(NC(=S)NC(=O)c3ccccc3)c2C(=O)O)CO1 [CID1067700]?
Effect of GTPase inhibitor on cytotoxicity by 4 (Jurkat cells [1]): negligible effect; Effect of GTPase inhibitor on cytotoxicity by CGP37157 (Jurkat cells [1]): negligible effect

Which results are given for COc1cc(-n2c(=S)[nH]c3ccccc3c2=O)c(Cl)cc1Cl [Mdivi-1]?
Effect of GTPase inhibitor on cytotoxicity by 4 (Jurkat cells [1]): negligible effect; Effect of GTPase inhibitor on cytotoxicity by CGP37157 (Jurkat cells [1]): negligible effect

Which “Effect of knockdown of MFNs on cell death induced by the compound” value [2] does the source give for CC1=C(O)C(=O)C=C2C1=CC=C1[C@@]2(C)CC[C@@]2(C)[C@@H]3C[C@](C)(C(=O)O)CC[C@]3(C)CC[C@]12C [celastrol] here?
Its value is “negligible effect”.

And the “MFN2 band intensity relative to absence of compound” value (mitofusin 2 (MFN2); celastrol 1 µM)?
Its value is 0.29.

What about the “MFN2 band intensity relative to absence of compound” value (mitofusin 2 (MFN2); celastrol 2 µM) of the same compound?
The value was 0.21.

What about the “MFN2 band intensity relative to absence of compound” value (mitofusin 2 (MFN2); celastrol 5 µM) of the same compound?
The value was 0.21.

What about the “MFN2 band intensity relative to absence of compound” value (mitofusin 2 (MFN2); celastrol 8 µM) of the same compound?
Its value is 0.22.

What about the “MFN2 band intensity relative to absence of compound” value (mitofusin 2 (MFN2); celastrol 10 µM) of the same compound?
The value was 0.15.

And the “Expression level of MFN2 (Figure 11C, S8C)” value (mitofusin 2 (MFN2); [6])?
The value was “decreased”.

And the “MFN1 band intensity relative to absence of compound” value (mitofusin 1 (MFN1); celastrol 1 µM)?
The value was 0.56.

What about the “MFN1 band intensity relative to absence of compound” value (mitofusin 1 (MFN1); celastrol 2 µM) of the same compound?
The value was 0.51.

What about the “MFN1 band intensity relative to absence of compound” value (mitofusin 1 (MFN1); celastrol 5 µM) of the same compound?
The value was 0.45.

What about the “MFN1 band intensity relative to absence of compound” value (mitofusin 1 (MFN1); celastrol 8 µM) of the same compound?
The value was 0.43.

What about the “MFN1 band intensity relative to absence of compound” value (mitofusin 1 (MFN1); celastrol 10 µM) of the same compound?
The value was 0.37.

What about the “Expression level of MFN1 (Figure 11C, S8C)” value (mitofusin 1 (MFN1); [6]) of the same compound?
The value was “decreased”.

What about the “DRP1 band intensity relative to absence of compound” value ([3]; celastrol 1 µM) of the same compound?
The value was 0.92.

What about the “DRP1 band intensity relative to absence of compound” value ([3]; celastrol 2 µM) of the same compound?
The value was 0.81.

What about the “DRP1 band intensity relative to absence of compound” value ([3]; celastrol 5 µM) of the same compound?
Its value is 0.44.

And the “DRP1 band intensity relative to absence of compound” value ([3]; celastrol 8 µM)?
Its value is 0.20.

And the “DRP1 band intensity relative to absence of compound” value ([3]; celastrol 10 µM)?
The value was 0.19.

What about the “Expression level of DRP1 (Figure 11C, S8C)” value [3, 6] of the same compound?
The value was “decreased”.

And the “Morphological change by TEM” value (Jurkat cells [4])?
Its value is “cytoplasmic vacuolization”.

And the “Overlap of MitoTracker Green and ER-Tracker Red emission (mitochondria-ER membrane fusion)” value (Jurkat cells [5])?
The value was “negligible”.

Which “Effect of PCD inhibitor” value (Jurkat cells [1]) does the source give for “Benzyloxycarbonyl-Val-Ala-Asp(OMe) fluoromethylketone [Z-VAD-fmk]” here?
The value was “weakly inhibited”.
